This is an account of results in PMC3781304 (American Journal of Cardiovascular Drugs, 2013).

Entries after “also recorded” stand apart in the source; their conditions may differ.

Data set [1] can be described thus: Verapamil drug-drug interaction study: edoxaban pharmacokinetics. Particulars: verapamil study.
The nature of data set [2]: Verapamil study: safety, treatment-emergent adverse events.
Data set [3] is described as follows: Quinidine drug-drug interaction study: edoxaban pharmacokinetics. The note with it: quinidine study.
Data set [4] can be described thus: Quinidine study: safety, treatment-emergent adverse events.
A short description of data set [5]: Amiodarone study: safety, treatment-emergent adverse events. It is filed as in vivo, healthy volunteers (human).

Take `COc1ccc(CCN(C)CCCC(C#N)(c2ccc(OC)c(OC)c2)C(C)C)cc1OC` (stereo not shown) [Verapamil, verapamil]: in data set [1], the “Effect of coadministration on edoxaban exposure (in words)” value is “increased edoxaban exposure; also recorded: significantly increased exposure”. Moreover, in data set [2], the “Constipation (TEAE)” value was 4 (12.1 %) n (%), the “Epistaxis (bleeding-related TEAE)” value is 0 n (%), the “Fecal occult bleeding (bleeding-related TEAE)” value was 0 n (%) and the “Headache (TEAE)” value is given as 3 (9.1 %) n (%). Further, in data set [2], the “Menorrhagia (bleeding-related TEAE)” value is recorded as 1 (3.0 %) n (%), the “Occular hyperemia (TEAE)” value is reported as 1 (3.0 %) n (%), the “Subjects reporting ≥1 TEAE” value is 13 (39.4 %) n (%) and the “Subjects reporting ≥1 treatment-related TEAE” value is on record as 9 (27.2 %) n (%). In addition, the “Subjects withdrawn with abnormal ECG” value in data set [2] (following verapamil monotherapy) is 3 subjects.

On to `C=C[C@H]1C[N@@]2CC[C@H]1C[C@@H]2[C@@H](O)c1ccnc2ccc(OC)cc12` [Quinidine, quinidine], for which the “Effect of coadministration on edoxaban exposure (in words)” value in data set [3] is listed as “increased edoxaban exposure; also recorded: significantly increased exposure”. In addition, in data set [4], the “Blood creatinine increased (TEAE)” value is 1 (2.8 %) n (%), the “Chest pain (TEAE)” value is 0 n (%), the “Epistaxis (bleeding-related TEAE)” value was 1 (2.8 %) n (%) and the “Headache (TEAE)” value is 3 (8.3 %) n (%). For the same compound, in data set [4], the “Hematochezia (bleeding-related TEAE)” value is given as 0 n (%), the “Irregular menstruation (bleeding-related TEAE)” value was 0 n (%), the “Menorrhagia (bleeding-related TEAE)” value is reported as 0 n (%) and the “Nausea (TEAE)” value is recorded as 2 (5.6 %) n (%). Also, in data set [4], the “Subjects reporting ≥1 TEAE” value was 11 (30.6 %) n (%) and the “Subjects reporting ≥1 treatment-related TEAE” value is 4 (11.1 %) n (%). Besides, in data set [4] (after quinidine dosing), the “Subjects withdrawn with QTc prolongation” value is 1 subject. In addition, the “Fecal occult bleeding (TEAE)” value in data set [4] (printed under most frequent and under bleeding-related TEAEs) is on record as 0 n (%).

Regarding `CCCCc1oc2ccccc2c1C(=O)c1cc(I)c(OCCN(CC)CC)c(I)c1` [Amiodarone, amiodarone], in data set [5], the “Contact dermatitis (TEAE)” value was 2 (6.9%) n (%), the “Diarrhea (TEAE)” value is 0 n (%), the “Fecal occult bleeding (bleeding-related TEAE)” value was 0 n (%) and the “Gingival bleeding (bleeding-related TEAE)” value was 0 n (%). In data set [5], the “Menorrhagia (bleeding-related TEAE)” value is 0 n (%), the “Pain in extremity (TEAE)” value was 0 n (%), the “Subjects reporting ≥1 TEAE” value is 7 (24.1 %) n (%) and the “Subjects reporting ≥1 treatment-related TEAE” value is listed as 1 (3.4 %) n (%).
